Test results reported in ChEMBL document CHEMBL1152560, “Substituted 2-arylbenzothiazoles as kinase inhibitors: hit-to-lead optimization” (Bioorg Med Chem, 2009).

Legend:
[1] = biological target: Serine/threonine-protein kinase 33 (Homo sapiens) (UniProt Q9BYT3); assay: Residual activity of STK33 at 1 uM by microplate scintillation counting
[2] = biological target: Platelet-derived growth factor receptor alpha (Homo sapiens) (UniProt P16234); assay: Residual activity of PDGFRalpha at 1 uM by microplate scintillation counting
[3] = biological target: T1, Ephrin type-A receptor 1 (Homo sapiens) (UniProt P21709); assay: Residual activity of EPHA1 at 1 uM by microplate scintillation counting
T1 sequence (whole entry): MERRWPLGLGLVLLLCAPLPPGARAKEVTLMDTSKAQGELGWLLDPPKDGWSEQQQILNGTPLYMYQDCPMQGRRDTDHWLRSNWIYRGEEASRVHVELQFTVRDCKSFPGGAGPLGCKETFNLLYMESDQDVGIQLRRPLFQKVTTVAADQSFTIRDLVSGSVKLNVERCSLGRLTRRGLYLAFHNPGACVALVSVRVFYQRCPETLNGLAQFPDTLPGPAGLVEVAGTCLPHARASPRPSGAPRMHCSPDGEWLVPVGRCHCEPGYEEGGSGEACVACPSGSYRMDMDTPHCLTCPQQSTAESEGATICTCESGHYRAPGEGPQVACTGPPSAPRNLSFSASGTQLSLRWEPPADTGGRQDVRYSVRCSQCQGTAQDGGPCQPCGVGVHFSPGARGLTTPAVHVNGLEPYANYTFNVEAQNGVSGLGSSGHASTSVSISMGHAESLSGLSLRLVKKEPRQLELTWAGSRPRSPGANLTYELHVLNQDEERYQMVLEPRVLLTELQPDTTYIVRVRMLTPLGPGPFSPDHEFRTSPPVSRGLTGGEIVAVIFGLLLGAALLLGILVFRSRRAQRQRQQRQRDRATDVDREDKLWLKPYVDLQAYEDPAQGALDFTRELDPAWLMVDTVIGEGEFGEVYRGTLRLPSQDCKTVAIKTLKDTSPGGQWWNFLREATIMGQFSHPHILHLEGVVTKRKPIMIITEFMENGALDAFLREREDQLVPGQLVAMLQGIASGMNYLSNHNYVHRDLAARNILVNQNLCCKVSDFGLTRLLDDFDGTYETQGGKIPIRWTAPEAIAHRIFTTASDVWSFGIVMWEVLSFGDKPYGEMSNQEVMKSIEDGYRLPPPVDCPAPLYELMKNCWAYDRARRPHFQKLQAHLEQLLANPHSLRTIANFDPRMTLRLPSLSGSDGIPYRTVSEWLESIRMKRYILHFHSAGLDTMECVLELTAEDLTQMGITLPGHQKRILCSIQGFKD

[4] = biological target: Casein kinase II subunit alpha (Homo sapiens) (UniProt P68400); assay: Residual activity of CK2alpha1 at 1 uM by microplate scintillation counting
[5] = biological target: T2, Muscle, skeletal receptor tyrosine-protein kinase (Homo sapiens) (UniProt O15146); assay: Residual activity of MUSK at 0.1 uM by microplate scintillation counting
T2 sequence (whole entry): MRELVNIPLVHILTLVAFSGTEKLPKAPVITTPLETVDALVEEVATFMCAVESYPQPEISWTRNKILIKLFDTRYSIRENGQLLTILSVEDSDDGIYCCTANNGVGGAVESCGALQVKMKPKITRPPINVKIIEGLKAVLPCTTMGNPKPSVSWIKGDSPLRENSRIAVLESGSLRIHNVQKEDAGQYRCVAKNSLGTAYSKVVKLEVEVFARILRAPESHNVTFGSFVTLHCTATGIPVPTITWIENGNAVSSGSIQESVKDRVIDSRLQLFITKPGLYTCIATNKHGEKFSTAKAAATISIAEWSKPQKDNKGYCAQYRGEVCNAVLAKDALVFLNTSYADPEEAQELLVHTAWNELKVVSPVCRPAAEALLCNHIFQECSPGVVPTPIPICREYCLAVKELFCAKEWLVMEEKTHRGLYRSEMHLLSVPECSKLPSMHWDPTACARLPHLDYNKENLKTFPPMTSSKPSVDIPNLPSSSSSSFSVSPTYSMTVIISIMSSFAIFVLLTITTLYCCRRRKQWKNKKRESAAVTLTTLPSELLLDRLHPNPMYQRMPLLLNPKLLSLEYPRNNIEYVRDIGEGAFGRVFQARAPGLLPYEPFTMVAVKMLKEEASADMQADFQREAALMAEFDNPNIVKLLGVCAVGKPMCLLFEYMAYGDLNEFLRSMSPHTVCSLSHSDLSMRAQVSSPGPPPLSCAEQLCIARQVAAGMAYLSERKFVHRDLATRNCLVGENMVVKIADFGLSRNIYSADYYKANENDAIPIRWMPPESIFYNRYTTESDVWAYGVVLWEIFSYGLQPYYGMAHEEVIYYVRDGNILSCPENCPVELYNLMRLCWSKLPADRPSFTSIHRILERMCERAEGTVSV

[6] = test system: RAF proto-oncogene serine/threonine-protein kinase (Homo sapiens), P04049 [Y340D,Y341D]; assay: Residual activity of RAF1 Y340D/Y341D mutant at 10 uM by microplate scintillation counting
[7] = biological target: Ephrin type-A receptor 7 (Homo sapiens) (UniProt Q15375); assay: Residual activity of EPHA7 at 0.1 uM by microplate scintillation counting
[8] = biological target: RAC-gamma serine/threonine-protein kinase (Homo sapiens) (UniProt Q9Y243); assay: Residual activity of AKT3 at 10 uM by microplate scintillation counting
Sequence of RAC-gamma serine/threonine-protein kinase (Homo sapiens) (Q9Y243 whole entry): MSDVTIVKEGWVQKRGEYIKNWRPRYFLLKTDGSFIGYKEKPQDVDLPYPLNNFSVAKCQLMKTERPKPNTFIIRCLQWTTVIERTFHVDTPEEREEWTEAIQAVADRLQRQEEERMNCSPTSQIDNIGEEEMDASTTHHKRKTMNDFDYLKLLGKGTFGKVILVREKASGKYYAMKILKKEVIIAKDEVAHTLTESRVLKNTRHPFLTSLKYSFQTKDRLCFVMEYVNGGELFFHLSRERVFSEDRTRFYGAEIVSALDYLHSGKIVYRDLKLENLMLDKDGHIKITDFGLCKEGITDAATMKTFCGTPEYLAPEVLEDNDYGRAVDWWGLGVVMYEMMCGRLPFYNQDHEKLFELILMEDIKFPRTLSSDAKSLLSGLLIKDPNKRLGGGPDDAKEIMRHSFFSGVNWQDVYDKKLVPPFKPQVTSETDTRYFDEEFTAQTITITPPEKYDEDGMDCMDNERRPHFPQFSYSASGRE

Sequence of Ephrin type-A receptor 7 (Homo sapiens) (Q15375 28-998 limits assumed): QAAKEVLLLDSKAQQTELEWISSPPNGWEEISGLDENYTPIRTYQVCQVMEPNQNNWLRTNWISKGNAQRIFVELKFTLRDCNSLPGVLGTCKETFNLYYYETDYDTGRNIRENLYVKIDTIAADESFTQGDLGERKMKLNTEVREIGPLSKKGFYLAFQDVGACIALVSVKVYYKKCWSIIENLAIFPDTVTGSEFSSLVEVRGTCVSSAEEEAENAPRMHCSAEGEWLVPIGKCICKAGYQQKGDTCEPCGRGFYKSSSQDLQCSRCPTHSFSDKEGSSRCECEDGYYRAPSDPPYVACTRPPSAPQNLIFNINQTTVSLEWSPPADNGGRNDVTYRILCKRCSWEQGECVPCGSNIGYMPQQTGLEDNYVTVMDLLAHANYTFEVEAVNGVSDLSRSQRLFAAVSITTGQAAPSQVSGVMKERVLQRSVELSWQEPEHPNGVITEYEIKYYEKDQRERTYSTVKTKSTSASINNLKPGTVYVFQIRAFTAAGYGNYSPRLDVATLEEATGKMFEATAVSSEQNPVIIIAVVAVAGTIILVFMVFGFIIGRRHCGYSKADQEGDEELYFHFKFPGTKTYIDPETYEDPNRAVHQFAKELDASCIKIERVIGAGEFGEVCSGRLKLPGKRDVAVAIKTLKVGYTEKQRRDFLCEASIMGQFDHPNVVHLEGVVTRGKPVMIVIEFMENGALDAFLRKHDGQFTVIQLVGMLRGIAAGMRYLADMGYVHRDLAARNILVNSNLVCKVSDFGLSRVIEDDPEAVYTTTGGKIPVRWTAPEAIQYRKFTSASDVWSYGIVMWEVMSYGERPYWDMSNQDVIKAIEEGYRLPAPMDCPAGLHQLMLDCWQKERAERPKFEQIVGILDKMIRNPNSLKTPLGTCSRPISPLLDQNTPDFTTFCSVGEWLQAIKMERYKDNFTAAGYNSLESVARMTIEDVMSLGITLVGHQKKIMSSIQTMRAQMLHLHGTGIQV
Sequence of Casein kinase II subunit alpha (Homo sapiens) (P68400 whole entry, looked up): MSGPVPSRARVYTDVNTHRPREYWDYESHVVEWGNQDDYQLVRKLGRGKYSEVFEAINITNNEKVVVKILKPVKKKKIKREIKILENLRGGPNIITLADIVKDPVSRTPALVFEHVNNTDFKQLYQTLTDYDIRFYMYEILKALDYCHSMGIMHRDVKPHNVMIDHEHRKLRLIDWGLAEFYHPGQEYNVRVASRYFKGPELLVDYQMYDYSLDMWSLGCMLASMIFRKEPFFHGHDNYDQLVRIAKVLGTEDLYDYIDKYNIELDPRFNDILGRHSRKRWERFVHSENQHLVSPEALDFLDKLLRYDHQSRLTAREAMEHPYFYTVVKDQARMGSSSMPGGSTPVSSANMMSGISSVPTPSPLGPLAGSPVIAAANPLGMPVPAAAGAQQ
Sequence of Platelet-derived growth factor receptor alpha (Homo sapiens) (P16234 whole entry): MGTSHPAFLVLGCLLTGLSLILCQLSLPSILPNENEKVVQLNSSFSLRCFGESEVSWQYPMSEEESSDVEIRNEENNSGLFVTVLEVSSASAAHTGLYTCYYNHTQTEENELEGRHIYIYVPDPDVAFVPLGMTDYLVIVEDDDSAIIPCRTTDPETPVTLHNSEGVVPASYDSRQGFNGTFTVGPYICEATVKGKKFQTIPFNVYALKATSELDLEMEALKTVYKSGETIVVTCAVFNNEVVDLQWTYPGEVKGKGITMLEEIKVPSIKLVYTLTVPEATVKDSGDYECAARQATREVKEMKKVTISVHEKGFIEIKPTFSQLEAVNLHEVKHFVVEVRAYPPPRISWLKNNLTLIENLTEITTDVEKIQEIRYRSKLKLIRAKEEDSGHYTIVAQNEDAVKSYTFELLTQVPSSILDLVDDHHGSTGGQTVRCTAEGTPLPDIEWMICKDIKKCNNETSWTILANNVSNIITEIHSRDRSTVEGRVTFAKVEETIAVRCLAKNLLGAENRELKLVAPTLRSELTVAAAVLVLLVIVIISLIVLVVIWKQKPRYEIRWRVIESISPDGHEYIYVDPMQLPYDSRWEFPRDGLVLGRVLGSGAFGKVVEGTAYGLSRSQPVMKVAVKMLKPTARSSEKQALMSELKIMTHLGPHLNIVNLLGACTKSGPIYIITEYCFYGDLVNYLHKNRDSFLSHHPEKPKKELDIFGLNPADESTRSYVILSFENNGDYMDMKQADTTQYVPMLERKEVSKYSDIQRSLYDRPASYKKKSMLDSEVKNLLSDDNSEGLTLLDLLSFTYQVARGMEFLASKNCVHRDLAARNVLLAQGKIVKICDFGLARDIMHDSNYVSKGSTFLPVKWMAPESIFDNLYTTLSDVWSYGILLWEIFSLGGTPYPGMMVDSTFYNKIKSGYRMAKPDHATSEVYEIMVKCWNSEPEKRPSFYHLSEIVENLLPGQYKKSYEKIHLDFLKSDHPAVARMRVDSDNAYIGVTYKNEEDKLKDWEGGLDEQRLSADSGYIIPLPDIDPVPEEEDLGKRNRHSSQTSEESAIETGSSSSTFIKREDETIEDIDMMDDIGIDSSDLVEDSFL
Sequence of Serine/threonine-protein kinase 33 (Homo sapiens) (Q9BYT3 whole entry, looked up): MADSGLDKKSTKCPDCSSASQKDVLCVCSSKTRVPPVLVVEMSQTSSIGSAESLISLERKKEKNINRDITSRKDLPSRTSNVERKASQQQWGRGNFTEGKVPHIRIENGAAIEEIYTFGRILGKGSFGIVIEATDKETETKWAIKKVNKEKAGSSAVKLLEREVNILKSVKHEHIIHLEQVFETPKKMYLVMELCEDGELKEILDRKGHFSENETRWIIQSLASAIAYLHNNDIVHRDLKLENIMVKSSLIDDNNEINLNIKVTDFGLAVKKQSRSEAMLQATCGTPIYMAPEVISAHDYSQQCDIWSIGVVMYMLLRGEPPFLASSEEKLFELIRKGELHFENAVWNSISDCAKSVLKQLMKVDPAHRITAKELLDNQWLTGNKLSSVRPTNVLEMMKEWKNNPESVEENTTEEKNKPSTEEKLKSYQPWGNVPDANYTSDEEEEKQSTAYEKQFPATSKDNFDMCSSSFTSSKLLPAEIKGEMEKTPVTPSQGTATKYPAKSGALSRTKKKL

Compound	residual activity [1] [%]	residual activity [2] [%]	residual activity [3] [%]	residual activity [4] [%]	residual activity [5] [%]	residual activity [6] [%]	residual activity [7] [%]	residual activity [8] [%]
COc1cc2c(Oc3ccc(-c4nc5ccccc5s4)cc3)ncnc2cc1OCCCN1CCN(C)CC1	72	57	140	90	95	74	88	112
COc1cc2c(Oc3ccc(-c4nc5ccccc5s4)cc3)ncnc2cc1OCCCN1CCCC1	84	59	147	94	97	61	111	79
COc1cc2c(Oc3ccc(-c4nc5ccccc5s4)cc3F)ncnc2cc1OCCCN1CCN(C)CC1	107	73	145	108	96	108	103	113
